Data published in patent publication US8143025B2, “Antibodies against vascular endothelial growth factor receptor-1” (ImClone LLC, priority 2004, dated 2012).

Experiments:
[1] = system: DU4475 xenograft; experiment: DU4475 breast tumor xenograft; assay type: in vivo, mouse
Procedure: Athymic nude mice (Charles River Laboratories, Wilmington, Mass.) were injected subcutaneously in the left flank area with 2×10^6 of DU4475 cells or 5×10^6 of MDA-MB-231 and MDA-MB-435 cells mixed in Matrigel (Collaborative Research Biochemicals. Bedford, Mass.). In the DU4475 and MDA-MB-231 models, tumors were allowed to reach approximately 200 mm^3 in size and then mice were randomized into groups of 12-16 animals per group. Animals received i.p. administration of the anti-VEGFR-I antibody clones 6F9, 15F11, or 18F1 at a dose of 0.5 mg (MDA-MB-231) or 1 mg (DU4475) three times each week. In the MDA-MB-435 model, the tumor cells were implanted subcutaneously into mammary fat pad area in the mouse. After tumors grew to reach approximately 200 mm^3 in size, mice were randomized into groups of 15 animals per group and intraperitoneally administered with 0.5 mg per dose of 18F1 antibody three times each week. Mice in control groups received an equal volume of saline solution. Treatment of animals was continued for the duration of the experiment. Tumors were measured twice each week with calipers. Tumor volumes were calculated using the formula [π/6 (w1×w2×w2)], where “w1” represents the largest tumor diameter and “w2” represents the smallest tumor diameter. Female athymic nu/nu mice, 6-8 weeks of age, were injected subcutaneously on the lateral dorsal surface with 0.4 mL volume of a suspension containing a human tumor cell line in media, diluted 1:1 with MATRIGEL™ (BD Biosciences). The cell lines used in xenograft models, with the cell doses indicated in parenthesis (10^6 cells/mouse), were: human colon carcinoma cell lines DLD-I (5), GEO (5) and HT-29 (5); human breast carcinoma cell lines DU4475 (2), MDA-MB-231 (5), MDA-MB-435 (5), and BT474 (5). When tumors reached approximately 200-300 mm^3, mice were randomized by tumor size and divided into treatment groups. Tumor growth was evaluated approximately twice weekly, with tumor volume calculated as π/6* (Length*Width^2), where Length=longest diameter and Width=diameter perpendicular to Length. Tumor dimensions were measured with calipers. T/C % was calculated as 100*(Final Treatment Tumor Volume/Initial Treatment Tumor Volume)/(Final Control Tumor Volume/Initial Control Tumor Volume). 18F1 was diluted in 0.9% USP saline (Braun) or phosphate buffered saline (PBS) and administered intraperitoneally in a volume of 0.5 mL per mouse. The effect of treatment on tumor growth was analyzed using repeated measures analysis of variance (RM ANOVA), p<0.05 was considered significant. 18F1 was used in combination with an antibody to mouse VEGFR-I, MF1. […] AU treatments were administered i.p. The effect of treatments on tumor growth were analyzed using repeated measures analysis of variance (RM ANOVA), p<0.05 was considered significant.

[2] = system: DU4475 carcinoma cells; experiment: Cell growth assay (Example 5); assay type: cell-based, human; settings: 3, 10, 30 μg/ml antibody, 50 ng/ml VEGF or 200 ng/ml PlGF, 48 hours
Procedure: DU4475 carcinoma cells were seeded at a density of 5×10^3/well into 96-well plates in serum-free conditions for 18 hours, and in some case followed by treatment with 100 nM of desferoxamine for additional 5 hours. Inhibitory effect of anti-VEGFR-I antibody on tumor cell growth was determined by incubation of cells with anti-VEGFR-I antibody clones 6F9, 13G12, 15F1 1, and 18F1 at doses of 3, 10, and 30 μg/ml in the presence of 50 ng/ml of VEGF or 200 ng/ml of PlGF for 48 hours. Viable cells were then counted in triplicate using a Coulter cytometer (Coulter Electronics Ltd. Luton, Beds, England). Each experiment was done in triplicate.

[3] = molecular target: T1, DU4475 human breast carcinoma cells (Homo sapiens, UniProt P17948); experiment: Flow cytometry analysis, DU4475 cells; assay type: binding; settings: FIG. 8B
T1 construct: host or cells: DU4475 human breast carcinoma cells
T1 sequence (P17948 27-1338): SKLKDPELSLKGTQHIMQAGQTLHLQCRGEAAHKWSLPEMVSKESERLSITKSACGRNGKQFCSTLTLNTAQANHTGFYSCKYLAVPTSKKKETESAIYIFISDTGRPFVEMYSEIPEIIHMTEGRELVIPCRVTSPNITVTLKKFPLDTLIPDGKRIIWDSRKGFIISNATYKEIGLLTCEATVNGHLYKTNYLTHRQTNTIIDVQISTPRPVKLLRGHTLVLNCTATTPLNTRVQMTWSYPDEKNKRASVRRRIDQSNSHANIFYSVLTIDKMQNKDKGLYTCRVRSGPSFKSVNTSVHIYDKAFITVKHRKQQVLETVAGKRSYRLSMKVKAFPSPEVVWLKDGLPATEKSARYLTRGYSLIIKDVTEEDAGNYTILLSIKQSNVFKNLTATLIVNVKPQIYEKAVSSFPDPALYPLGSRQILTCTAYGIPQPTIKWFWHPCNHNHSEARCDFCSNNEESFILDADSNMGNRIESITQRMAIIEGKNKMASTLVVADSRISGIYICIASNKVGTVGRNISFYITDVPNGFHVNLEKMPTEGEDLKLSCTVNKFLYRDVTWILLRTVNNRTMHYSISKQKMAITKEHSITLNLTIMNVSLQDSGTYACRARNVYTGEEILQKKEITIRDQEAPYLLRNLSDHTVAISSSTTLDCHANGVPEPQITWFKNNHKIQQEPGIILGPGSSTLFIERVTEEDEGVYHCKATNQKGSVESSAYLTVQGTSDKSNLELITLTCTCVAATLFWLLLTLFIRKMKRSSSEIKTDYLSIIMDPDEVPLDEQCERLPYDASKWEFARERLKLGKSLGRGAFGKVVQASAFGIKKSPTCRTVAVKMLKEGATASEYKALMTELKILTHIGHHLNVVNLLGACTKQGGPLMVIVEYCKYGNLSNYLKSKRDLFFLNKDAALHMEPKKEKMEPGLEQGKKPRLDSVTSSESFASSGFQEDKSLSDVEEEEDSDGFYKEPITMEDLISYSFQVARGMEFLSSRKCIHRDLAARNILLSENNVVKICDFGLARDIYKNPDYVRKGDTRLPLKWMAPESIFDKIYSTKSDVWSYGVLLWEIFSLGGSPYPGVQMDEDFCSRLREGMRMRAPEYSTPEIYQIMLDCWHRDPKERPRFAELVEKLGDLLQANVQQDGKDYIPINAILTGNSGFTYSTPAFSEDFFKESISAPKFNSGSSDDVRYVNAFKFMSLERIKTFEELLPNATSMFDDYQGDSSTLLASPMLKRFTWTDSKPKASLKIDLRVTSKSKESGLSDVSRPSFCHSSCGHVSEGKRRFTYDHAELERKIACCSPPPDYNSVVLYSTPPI
Procedure: Aliquots of 10^6PAE-VEGFR-I cells were harvested from subconfluent cultures and incubated with anti-VEGFR-I antibody clones 6F9, 13G12, F11, and 18F1 in PBS with 1% bovine serum albumin (BSA) and 0.02% sodium azide (staining buffer) for one hour on ice. Aliquots of 10^6DU4475 human breast carcinoma cells were harvested from subconfluent cultures and incubated with anti-VEGFR-1 antibody clone 18F1 in PBS with 1% bovine serum albumin (BSA) and 0.02% sodium azide (staining buffer) for one hour on ice. A matched IgG isotype (Jackson ImmunoResearch, West Grove, Pa.) was used as a negative control. Cells were washed twice with flow buffer and then incubated with a fluorescein isothiocyanate (FITC)-labeled goat anti-human IgG antibody (BioSource International, Camarillo, Calif.) in staining buffer for 30 minutes on ice. Cells were washed as above and analyzed on an Epics XL flow cytometer (Beckman-Coulter, Hialeah, Fla.). Dead cells and debris were eliminated from the analysis on the basis of forward and sideways light scatter. The mean fluorescent intensity units (MFRJ) were calculated as the mean log fluorescence multiplied by the percentage of positive population.

Q: Which results are given for “18F1: human anti-VEGFR-1 monoclonal antibody clone; VL SEQ ID NO: 16, VH SEQ ID NO: 20 [Clone 18F1]”?
A: tumor growth of the DU4475 xenograft ([1]; 1 mg per dose three times each week i.p., p<0.05, FIGS. 19A-B): statistically significant suppression; tumor growth of the DU4475 xenograft ([1]; 0.5 or 1 mg per dose three times each week, ANOVA p<0.05, FIG. 20A): statistically significant suppression; growth of DU4475 xenograft tumors ([1]; Example 9, intraperitoneal, p<0.05, FIG. 25A): significantly (p<0.05) suppressed; tumor growth inhibition, DU4475 xenograft ([1]; Example 11, p<0.05, FIG. 28B): significant tumor growth inhibition; VEGF and PlGF stimulated proliferation of DU4475 breast carcinoma cells [2]: inhibition; binding reactivity with DU4475 human breast carcinoma [3]: binding reactivity
